According to article PMC4560162, “Discovery of small molecule inhibitors of xyloglucan endotransglucosylase (XET) activity by high-throughput screening” (Phytochemistry, 2015):
“And” between values parts separate entries of the source, which are not always exact repeats. Identical values can stand only once. “Also recorded” adds a separate entry of the source. Like-named read-outs stand apart in the source and are kept apart here.

Key:
[1] = tested on: Petroselinum xyloglucan endotransglucosylase (XET) activity; experiment: Fluorescent dot-blot XET screen (cellulose-bound xyloglucan + XGO–SR on paper, in the dark); format: biochemical, parsley; conditions: for effect on XET activity in dot-blot (inhibition / promotion): EDI 0.4 mg/ml, LATCA 50 μM, 2 h, dark, cellulose-bound xyloglucan; for coagulation ('type c' effect) in dot-blot: EDI collection, 0.4 mg/ml in enzyme mixture
Experimental: For inhibitor screening, 53 new 96-well plates were set up with 50 μl of parsley enzyme extract per well, and 1 μl of DMSO-solubilised xenobiotic was added to each well, giving concentrations of 0.4 mg/ml (EDI collection, with exceptions noted in Table S2) or 50 μM (LATCA collection) and 2% v/v DMSO.
XET test-paper was prepared as before ([Fry, 1997]) and 112 × 75-mm sheets were attached to cellulose acetate overhead-projector sheets with ‘Spraymount’ adhesive. Each sheet was placed on a pre-cooled glass plate in a cold room at 4 °C.
For inhibitor screening (Fig. 2), 4 μl of a parsley enzyme/xenobiotic mixture was applied to each position on a sheet. Incubation at 20 °C for 2 h, washing, drying and photography were conducted essentially as above.

[2] = tested on: parsley XET activity; experiment: Radiochemical XET assay (soluble xyloglucan + [3H]XXXGol); format: biochemical; conditions: for effect on XET activity, radiochemical re-screen of 206 compounds (mostly LATCA): LATCA approx. 25 μM, EDI approx. 200 μg/ml, listed in order of decreasing effectiveness; for effect on XET activity in radiochemical assays (as summarised in the discussion) / IC50: soluble xyloglucan, laboratory light; for effect on XET activity in radiochemical assays (as summarised in the discussion): free solution; for IC50: read-out: IC50 (concentration required for 50% inhibition of XET activity), radiochemical assay, 20 °C; for effect on XET activity, first radiochemical re-screen of EDI hits: most xenobiotics at 200 μg/ml (≈200–800 μM)
Experimental: The parsley enzyme concentration was held constant, and the xenobiotics were tested at 200, 160, 120, 80, 40, 20, 10 and 0 μg/ml (concentrations in the final reaction mixture). Other details were as above.
The riboflavin-free controls received the same DMSO concentration.

[3] = tested on: Rosa cell-suspension cultures; experiment: Membrane function ([14C]proline uptake) in Rosa culture; format: cell-based, Rosa ("Paul's Scarlet" rose); conditions: 4 d after xenobiotic
Experimental: Before testing the effects of XET-inhibitors on cell expansion, we defined their non-toxic concentrations. The eight XET-inhibiting xenobiotics mentioned in §2.7 were tested for cytotoxicity in cultured Rosa and Zea cells, by simple tests of the compounds’ ability to inhibit membrane and ribosome function based on [^14C]proline uptake and incorporation. In xenobiotic-free control 4-d-old Rosa cultures, 93.3% and 94.3% of the supplied [^14C]proline was absorbed from the medium within 2 and 4 h respectively, indicating healthy membrane function. In xenobiotic-free 4-d-old Zea cultures, the corresponding figures were 93.9% and 92.5%. By 4 h, 5.5% of the total [^14C]proline supplied had been incorporated into protein by Rosa and 9.3% by Zea cells, indicating healthy ribosome function. Against these control rates, we recorded any inhibition of membrane and ribosome function by the xenobiotics (Fig. 8). Each xenobiotic was tested at two concentrations (¼ and ^1/20 of the lowest non-tolerated concentration), which had been selected on the basis of preliminary experiments with a dilution series of the xenobiotic.
Eight xenobiotics that inhibited XET activity were selected for biological testing. Mini-cultures [2 ml, 5% (v/v) SCV; transferred from a standard culture 7 d after sub-culturing] were incubated in 12-well tissue culture microplates with the lids closed loosely. Xenobiotics were added as concentrated stocks in DMSO (final DMSO concentration 2%), and incubation was continued aseptically under standard conditions of temperature, lighting and shaking. After 4 d, 1 kBq of [^14C]proline was added per mini-culture. […] The culture was brought up to 10 ml with water and the settled and packed cell volumes (SCV, PCV) were then measured ([Fry and Street, 1980]). […] After 0.5 h at 100 °C, a 100-μl aliquot of the centrifuged SDS-extract was dried onto Whatman No. 3 paper, which was then washed in 75% ethanol supplemented with 0.5% acetic acid, thus removing free [^14C]proline and its low-Mr metabolites if any; radioactivity remaining on the paper ([^14C]protein) was then assayed.

[4] = tested on: Zea cell-suspension cultures; experiment: Membrane function ([14C]proline uptake) in Zea culture; format: cell-based, Zea mays; conditions: 4 d after xenobiotic
[5] = tested on: Zea cell-suspension cultures; experiment: Cell expansion (SCV, PCV) in Zea cell-suspension culture; format: cell-based, Zea mays; conditions: for concentration inhibiting growth (PCV) without membrane impairment: Zea, 4 d incubation
Experimental: (§1) Cell-suspension cultures of “Paul’s Scarlet” rose [a complex hybrid; genus Rosa; isolated in October 1957 from sections of young stem material; [Nickell and Tulecke, 1959]) and maize (Zea mays L., Black Mexican Sweetcorn, donated by Dr. I. Moore, Department of Botany, University of Edinburgh) were grown under constant dim illumination (10 μmol m^−2 s^−1) on an orbital shaker at 25 °C. Rose cells were maintained as described by [Chormova et al. (2014)] and maize cells as described by [Kerr and Fry (2003)].
(§2) Eight xenobiotics that inhibited XET activity were selected for biological testing. Mini-cultures [2 ml, 5% (v/v) SCV; transferred from a standard culture 7 d after sub-culturing] were incubated in 12-well tissue culture microplates with the lids closed loosely. Xenobiotics were added as concentrated stocks in DMSO (final DMSO concentration 2%), and incubation was continued aseptically under standard conditions of temperature, lighting and shaking. After 4 d, 1 kBq of [^14C]proline was added per mini-culture. A small volume of medium (50 μl) was sampled 2 and 4 h after [^14C]proline addition and assayed for remaining extracellular ^14C. The culture was brought up to 10 ml with water and the settled and packed cell volumes (SCV, PCV) were then measured ([Fry and Street, 1980]). Most of the culture medium was then removed and the cells were finally killed by addition of 0.5 ml of 6% SDS. After 0.5 h at 100 °C, a 100-μl aliquot of the centrifuged SDS-extract was dried onto Whatman No. 3 paper, which was then washed in 75% ethanol supplemented with 0.5% acetic acid, thus removing free [^14C]proline and its low-Mr metabolites if any; radioactivity remaining on the paper ([^14C]protein) was then assayed.

[6] = tested on: nine other cell-wall enzyme activities; experiment: Dot-blot assays for nine additional wall enzyme activities; format: biochemical, parsley and lucerne (alfalfa); conditions: xenobiotic 200 mg/l
Experimental: Radiolabelled oligosaccharide ([1-^3H]Gal12-ol or [1-^3H]Xyl6-ol; 1 kBq; containing a trace of Orange G) was dried into each well of a 96-well plate. […] The mixture was incubated for 24 h (for Gal12-ol) or 48 h (for Xyl6-ol), then the 5-μl reaction mixture was dried onto each position on a piece of plain Whatman No. 1 paper in 96-well format. Visual inspection of the Orange G verified that the samples had been correctly applied to the paper. […] Thus, in this assay, radioactive spots reveal inhibition of the enzyme.

[7] = tested on: Rosa cell-suspension cultures; experiment: Cell expansion (SCV, PCV) in Rosa cell-suspension culture; format: cell-based, Rosa ("Paul's Scarlet" rose); conditions: for concentration inhibiting growth (PCV) without membrane impairment: Rosa, 4 d incubation
Experimental: as §1, §2

Molecule	effect on XET activity in dot-blot (inhibition / promotion) [1]	effect on XET activity, radiochemical re-screen of 206 compounds (mostly LATCA) [2]	coagulation ('type c' effect) in dot-blot [1]	effect on XET activity in radiochemical assays (as summarised in the discussion) [2]	also measured
CC1=C(/C=C/C(C)=C/C=C/C(C)=C\C(=O)O)C(C)(C)CCC1 [13-cis-retinoic acid]	did not show inhibitory effects	inhibition	–	–	membrane function ([3]; higher tested concentration): impaired; membrane function ([4]; at the concentrations tested): only slightly
O=c1cc(-c2ccc(O)cc2)oc2cc(O)cc(O)c12 [apigenin]	promoted	–	coagulation	little effect	–
O=c1cc(-c2ccccc2)oc2cc(O)c(O)c(O)c12 [baicalein]	promoted	–	coagulation	inhibited	–
COc1cccc2c1C(=O)c1c(O)c3c(c(O)c1C2=O)C[C@@](O)(C(C)=O)C[C@@H]3O[C@H]1C[C@H](N)[C@H](O)[C@H](C)O1 [daunorubicin]	apparent promoters; also recorded: promoted	–	–	moderately inhibitory; also recorded: inhibited	–
O=c1c2ccccc2[se]n1-c1ccccc1 [ebselen]	XET inhibitor	inhibition	–	–	concentration inhibiting growth (PCV) without membrane impairment [5]: 70 µM
O=C(O[C@@H]1Cc2c(O)cc(O)cc2O[C@@H]1c1cc(O)c(O)c(O)c1)c1cc(O)c(O)c(O)c1 [epigallocatechin gallate, (−)-epigallocatechin gallate]	promoted	–	coagulation	inhibited	number of the nine other wall enzyme activities inhibited [6]: eight; effect on XET activity in dot-blot (inhibition / promotion) ([1]; listed as (−)-epigallocatechin gallate): coagulating promoter; concentration inhibiting growth (PCV) without membrane impairment [5]: 40 µM; IC50 ([2]; 2 h): ~400 µM; concentration inhibiting growth (PCV) without membrane impairment [7]: 870 µM; membrane function ([4]; higher tested concentration): impaired
Cc1cc2nc3c(=O)[nH]c(=O)nc-3n(C[C@H](O)[C@H](O)[C@H](O)COP(=O)(O)OP(=O)(O)OC[C@H]3O[C@@H](n4cnc5c(N)ncnc54)[C@H](O)[C@@H]3O)c2cc1C [flavin adenine dinucleotide]	did not show inhibitory effects	inhibition	–	–	–
O=C(O)[C@H](O)[C@@H](O)[C@H](O[C@@H]1O[C@H](CO)[C@H](O)[C@H](O)[C@H]1O)[C@H](O)CO [lactobionic acid]	promotion; also recorded: promoted	–	–	little effect	–
O=c1cc(-c2ccc(O)c(O)c2)oc2cc(O)cc(O)c12 [luteolin]	promoted	–	coagulation	inhibited	–
COc1c(C)c2c(c(O)c1C/C=C(\C)CCC(=O)O)C(=O)OC2 [mycophenolic acid]	–	–	–	–	concentration inhibiting growth (PCV) without membrane impairment [5]: 60 µM; membrane function ([4]; higher tested concentration): impaired
O=C1OC(c2ccc(O)cc2)(c2ccc(O)cc2)c2ccccc21 [phenolphthalein]	–	–	coagulation	–	effect on XET activity, first radiochemical re-screen of EDI hits [2]: inhibitory
CC(=O)[O][Hg][c]1ccccc1 [phenylmercuric acetate]	inhibitors	inhibition	–	–	–
O=C(CCc1ccc(O)cc1)c1c(O)cc(O)cc1O [phloretin]	promoted	–	coagulation	inhibited	effect on XET activity, first radiochemical re-screen of EDI hits [2]: inhibitory
O=C(O)[C@]1(O)C[C@@H](O)[C@@H](O)[C@H](O)C1 [quinic acid]	promoted	–	–	little effect	–
Cc1cc2nc3c(=O)[nH]c(=O)nc-3n(C[C@H](O)[C@H](O)[C@H](O)CO)c2cc1C [riboflavin]	–	inhibition	–	–	number of the nine other wall enzyme activities inhibited [6]: eight; [3H]Xyloglucan formed, Low light ([2]; 0.5 mM riboflavin, 0.2 lux, 2 h, control without riboflavin 8861 ± 105, mean ± SE of 4): 5390 ± 130 cpm; [3H]Xyloglucan formed, High light ([2]; 0.5 mM riboflavin, 1100 lux, 2 h, control without riboflavin 8942 ± 349, mean ± SE of 4): 807 ± 63 cpm; IC50 ([2]; 2 h): 29 µM and ~30 µM; membrane function ([4]; at the concentrations tested): impaired
C[CH2][Hg][S]c1ccccc1C(=O)[O-].[Na+] [thiomersal]	did not show inhibitory effects	inhibition	–	–	–
COC(=O)/C(=C1/OC(=O)C(c2ccccc2)=C1O)c1ccccc1 [vulpinic acid]	did not show inhibitory effects	–	–	inhibitor	number of the nine other wall enzyme activities inhibited [6]: two; membrane function ([3]; at the concentrations tested): impaired
erythrosin B	–	inhibition	–	–	concentration that inhibited cell expansion / culture growth (abstract) ([5]; Zea cell-suspension culture): 1 µM; effect on XET activity, first radiochemical re-screen of EDI hits [2]: inhibitory; IC50 ([2]; 2 h): 36 µM; IC50 ([2]; 2 h, listed as erythrosin B): ~30 µM; concentration that inhibited cell expansion (abstract) ([7]; Rosa cell-suspension culture): 1 µM; concentration inhibiting growth (PCV) without membrane impairment [7]: 1.1 µM; membrane function ([4]; at the concentrations tested): impaired
